Measurements: publication PMC9933715 (Antimicrobial Agents and Chemotherapy, 2023)
Where two headings read alike, the source gives them in different places.

Tests used:
Huh7.5 cells = experiment: Cell viability, CellTiter-Glo luminescent assay
[1] = tested on: DENV-R2A (Rluc-expressing DENV, serotype 2 strain 16681); experiment: microbe, parasite or virus in culture; type: cell-based, Dengue virus; conditions: for activity at 50 µM: Dengue virus, Huh7.5, 48 h
[2] = tested on: ZIKV-R2A (strain FSS13025); experiment: microbe, parasite or virus in culture; type: cell-based; conditions: Zika virus, Huh7.5, 48 h, read-out: ZIKV-R2A replication (fold DMSO) Mean
[3] = 6A1HI analogues, test concentration = 50 µM, Huh7.5 cells
[4] = Table 2, 6A1HI analogues, 50 μM, Huh7.5, 2 days
[5] = Table S3, NPP3C analogues, 50 µM, Huh7.5
[6] = read-out: DENV-R2A replication (Fold DMSO), 6A1HI analogues, test concentration = 50 µM, Huh7.5 cells
[7] = read-out: DENV-R2A replication (Fold DMSO), Table S3, NPP3C analogues, 50 µM, Huh7.5, 2 days postinfection
[8] = read-out: DENV-R2A replication (fold DMSO), Table 2, 6A1HI analogues, 50 μM, Huh7.5, 2 days postinfection
[9] = Table 1, NPP3C analogues, 50 μM, Huh7.5, 2 days
[10] = read-out: DENV-R2A replication (fold DMSO), Table 1, NPP3C analogues, 50 μM, Huh7.5, 2 days postinfection
[11] = read-out: DENV-R2A replication (fold DMSO) Mean, deconvolution screen, singletons, 50 µM, Huh7.5, 2 days postinfection
[12] = Table S3, NPP3C analogues, 50 µM, Huh7.5, 2 days postinfection

Compound | Cell viability (Fold DMSO) (Huh7.5 cells; [3]) | Cell viability (Fold DMSO) (Huh7.5 cells; [4]) | Cell viability (Fold DMSO) (Huh7.5 cells; [5]) | activity at 50 µM [1, 6] | activity at 50 µM [1, 8] | DENV-R2A replication (Fold DMSO) [1, 3] | DENV-R2A replication (Fold DMSO) [1, 12] | other results
CC(=O)c1cccc2cn[nH]c12 [Compound 9] | 1.03 Fold DMSO | 1.03 fold DMSO | 0.96 Fold DMSO | 90% | 90% |  |  | inhibitory activity against DENV-R2A (SAR, in words) ([1]; 6A1HI analogues, 50 μM): inhibitory activity was completely lost; activity at 50 µM [1, 7]: 107%
O=C(Nc1ccc(C(F)(F)F)cc1)c1cccnc1 [Compound 65] | 1.17 Fold DMSO |  | 0.87 Fold DMSO | 115% |  |  |  | Cell viability (Fold DMSO) (Huh7.5 cells; [9]): 0.87 fold DMSO; activity at 50 µM [1, 10]: 98%
CNC(=O)c1cn(C)c2ccccc12 [Compound 9T-1495, CNC(=O)c1cn(C)c2ccccc12] |  |  |  |  |  |  |  | activity at 50 µM [1, 11]: 103%; activity at 50 µM [2]: 98%
CC(Nc1ccccc1)c1cccnc1 (stereo not drawn) [Compound 56] | 0.98 Fold DMSO |  | 0.94 Fold DMSO | 114% |  |  |  | Cell viability (Fold DMSO) (Huh7.5 cells; [9]): 0.94 fold DMSO; activity at 50 µM [1, 10]: 147%; antiviral activity against DENV-R2A (SAR, in words) ([1]; NPP3C analogues, 50 μM): retains little activity, if any
Oc1ccc2[nH]ncc2c1 [Compound 18] | 0.98 Fold DMSO | 0.98 fold DMSO | 0.95 Fold DMSO | 106% | 106% |  |  | activity at 50 µM [1, 7]: 101%
O=C(NC1CC1)c1ccc(C(F)(F)F)nc1 [Compound 41] | 0.98 Fold DMSO |  | 0.90 Fold DMSO |  |  | 1.13 Fold DMSO | 1.24 Fold DMSO | 
O=C(Nc1ccccc1)c1ccc(C(F)(F)F)nc1 [Compound 62] | 1.03 Fold DMSO |  | 0.79 Fold DMSO |  |  | 0.93 Fold DMSO | 0.71 Fold DMSO | 
O=C(Nc1cccc(B(O)O)c1)c1cccnc1 [Compound 52] |  |  |  | 115% | 115% |  |  | activity at 50 µM [1, 10]: 107%
O=C1CCc2ccccc21 [PS-5770, O=C1CCc2ccccc12] |  |  |  |  |  |  |  | activity at 50 µM [1, 11]: 103%; activity at 50 µM [2]: 103%
Nc1ccc(C(=O)Nc2ccccc2)cc1 [Compound 61] | 0.83 Fold DMSO |  | 0.98 Fold DMSO |  |  | 1.09 Fold DMSO | 0.98 Fold DMSO | 
O=C(NNC(=O)c1ccncc1)Nc1ccccc1 [Compound 69] | 1.02 Fold DMSO |  | 0.88 Fold DMSO |  |  | 0.98 Fold DMSO | 1.32 Fold DMSO | 
CC(=O)c1ccc2cn(C)nc2c1 [Compound 4] | 0.75 Fold DMSO | 0.75 fold DMSO | 0.96 Fold DMSO | 97% | 97% |  |  | inhibitory activity against DENV-R2A (SAR, in words) ([1]; 6A1HI analogues, 50 μM): loss of inhibitory activity; activity at 50 µM [1, 7]: 105%
O=C(c1ccccc1)c1cccnc1 [Compound 33] | 0.89 Fold DMSO |  | 0.95 Fold DMSO |  |  | 0.95 Fold DMSO | 1.14 Fold DMSO | 
Nc1cccc(-c2cccnc2)c1 [Compound 10] | 0.93 Fold DMSO |  | 0.93 Fold DMSO |  |  | 1.00 Fold DMSO | 1.04 Fold DMSO | 
NC(=O)c1ccc2cn[nH]c2c1 [Compound 75] | 0.99 Fold DMSO | 0.99 fold DMSO |  | 106% | 106% |  |  | 
CC(=O)c1ccc2c(c1)OCO2 [Compound 42] | 0.93 Fold DMSO | 0.93 fold DMSO | 1.15 Fold DMSO | 107% | 107% |  |  | inhibitory activity against DENV-R2A (SAR, in words) ([1]; 6A1HI analogues, 50 μM): loss of inhibitory activity; activity at 50 µM [1, 7]: 153%
CC(=O)c1ccc2[nH]c(=O)[nH]c2c1 [Compound 76] | 0.98 Fold DMSO | 0.98 fold DMSO |  | 87% | 87% |  |  | inhibitory activity against DENV-R2A (SAR, in words) ([1]; 6A1HI analogues, 50 μM): loss of inhibitory activity
Nc1cccc(NC(=O)c2cccnc2)c1 [Compound 55] | 1.08 Fold DMSO |  | 0.96 Fold DMSO | 134% |  |  |  | Cell viability (Fold DMSO) (Huh7.5 cells; [9]): 0.96 fold DMSO; activity at 50 µM [1, 10]: 75%
O=C(Nc1ccncc1)c1ccccc1 [Compound 28] | 0.48 Fold DMSO |  | 1.05 Fold DMSO |  |  | 0.09 Fold DMSO | 1.05 Fold DMSO | 
OCc1ccc2cn[nH]c2c1 [Compound 3] | 0.93 Fold DMSO | 0.93 fold DMSO | 0.94 Fold DMSO | 110% | 110% |  |  | activity at 50 µM [1, 7]: 89%
